# Results from patent US9856264B2, “Isoquinolinesulfonyl derivative as RHO kinase inhibitor” (MEDSHINE DISCOVERY INC., priority 2014, dated 2018).
# Target: ROCK kinase
# Test: In vitro ROCK kinase inhibition activity evaluation (33P-ATP filter-binding)
# Format: biochemical
# Set-up: key to ROCK inhibition activity: 1 μM ≦ + < 5 μM; 0.1 μM ≦ ++ < 1 μM; +++ < 0.1 μM; −− N/A
# Settings: 1 nM ROCK kinase, 20 μM Long S6 Kinase substrate peptide, 2 h room temperature
# Description: Biological Activity Experiment: In Vitro ROCK Kinase Inhibition Activity Evaluation
# Experimental Objective: Test ROCK Inhibition IC50 Value of Invented Compounds
# Buffer solution: 20 mM Hepes (pH 7.5), 10 mM MgCl2, 1 mM EGTA, 0.02% Brij35, 0.02 mg/ml BSA, 0.1 mM Na3VO4, 2 mM DTT, 1% DMSO
# To a freshly prepared buffer solution was added ROCK substrate Long S6 Kinase substrate peptide, with concentration at 20 μM. 1 nM ROCK kinase was then added, and well stirred. A series of DMSO solution (starting from 10 μM, dilution factor 3) of testing article was added using Echo550. The mixture was incubated for 20 min at room temperature, then was added ^33P-ATP (radioactive intensity 10 μCi/μL) to initiate reaction and further reacted for 2 h at room temperature. The mixture was filtered through P81 ion exchange paper (Whatman #3698-915), and washed by 0.75% phosphoric acid. The intensity of radiation was measured by Filter-Binding method.
# The inhibition activity of the testing articles were measured by comparing the residue kinase activity to blank substrate (pure DMSO). Using Prism software ((GraphPad Software, San Diego Calif., USA) to calculate IC50 and curve.
compound,measurement,value
"O=S(=O)(c1cccc2cnccc12)N1CC[C@@H]2NCC[C@@H]21 (stereo in doubt) [Example 1, 5-((hexahydropyrrolo[3,2-b]pyrrol-1(2H)-yl)sulfonyl)isoquinoline]",IC50,100 to 1000 nM
"O=S(=O)(c1cccc2cnccc12)N1C[C@@H]2CCN[C@@H]2C1 (stereo in doubt) [Example 2, 5-((hexahydropyrrolo[3,4-b]pyrrol-5(1H)-yl)sulfonyl)isoquinoline]",IC50,100 to 1000 nM
"O=S(=O)(c1cccc2cnccc12)N1C[C@H]2CCCN[C@H]2C1 (stereo in doubt) [Example 3, 5-((hexahydro-1H-pyrrolo[3,4-b]pyridin-6(2H)-yl)sulfonyl)isoquinoline]",IC50,100 to 1000 nM
"O=S(=O)(c1cccc2cncc(Cl)c12)N1CC[C@@H]2NCC[C@@H]21 (stereo in doubt) [Example 16, 4-chloro-5-((hexahydropyrrolo[3,2-b]pyrrol-1(2H)-yl)sulfonyl)isoquinoline]",IC50,100 to 1000 nM
"O=S(=O)(c1cccc2cncc(Cl)c12)N1C[C@@H]2CCN[C@@H]2C1 (stereo in doubt) [Example 17, 4-chloro-5-((hexahydropyrrolo[3,4-b]pyrrol-5 (1H)-yl)sulfonyl)isoquinoline]",IC50,100 to 1000 nM
"O=S(=O)(c1cccc2cncc(Cl)c12)N1C[C@H]2CCCN[C@H]2C1 (stereo in doubt) [Example 18, 4-chloro-5-((hexahydro-1H-pyrrolo[3,4-b]pyridin-6(2H)-yl)sulfonyl)isoquinoline]",IC50,100 to 1000 nM
"O=S(=O)(c1cccc2cncc(Cl)c12)N1C[C@H]2CN[C@H]2C1 (stereo in doubt) [Example 19, 5-(3,6-diazabicyclo[3.2.0]heptan-3-ylsulfonyl)-4-chloroisoquinoline]",IC50,< 100 nM
"O=S(=O)(c1cccc2cncc(F)c12)N1CC[C@@H]2NCC[C@@H]21 (stereo in doubt) [Example 24, 4-fluoro-5-((hexahydropyrrolo[3,2-b]pyrrol-1(2H)-yl)sulfonyl)isoquinoline]",IC50,1000 to 5000 nM
"O=S(=O)(c1cccc2cncc(F)c12)N1C[C@H]2CCCN[C@H]2C1 (stereo in doubt) [Example 26, 4-fluoro-5-((hexahydro-1H-pyrrolo[3,4-b]pyridin-6(2H)-yl)sulfonyl)isoquinoline]",IC50,100 to 1000 nM
"O=S(=O)(c1cccc2cncc(F)c12)N1C[C@H]2CN[C@H]2C1 (stereo in doubt) [Example 27, 5-(3,6-diazabicyclo[3.2.0]heptan-3-ylsulfonyl)-4-fluoroisoquinoline]",IC50,100 to 1000 nM
"O=S(=O)(c1cccc2cncc(C(F)F)c12)N1CC[C@@H]2NCC[C@@H]21 (stereo in doubt) [Example 31, 4-(difluoromethyl)-5-((hexahydropyrrolo[3,2-b]pyrrol-1(2H)-yl)sulfonyl)isoquinoline]",ROCK inhibition activity,−−
"O=S(=O)(c1cccc2cncc(C(F)F)c12)N1C[C@@H]2CCN[C@@H]2C1 (stereo in doubt) [Example 32, 4-(difluoromethyl)-5-((hexahydropyrrolo[3,4-b]pyrrol-5(1H)-yl)sulfonyl)isoquinoline]",ROCK inhibition activity,−−
"O=S(=O)(c1cccc2cncc(C(F)F)c12)N1C[C@H]2CCCN[C@H]2C1 (stereo in doubt) [Example 33, 4-(difluoromethyl)-5-((hexahydro-1H-pyrrolo[3,4-b]pyridin-6(2H)-yl)sulfonyl)isoquinoline]",ROCK inhibition activity,−−
"O=S(=O)(c1cccc2cncc(C(F)F)c12)N1C[C@H]2CN[C@H]2C1 (stereo in doubt) [Example 34, 5-(3,6-diazabicyclo[3.2.0]heptan-3-ylsulfonyl)-4-(difluoromethyl)isoquinoline]",ROCK inhibition activity,−−
"Cc1cncc2cccc(S(=O)(=O)N3CC[C@@H]4NCC[C@@H]43)c12 (stereo in doubt) [Example 37, 5-((hexahydropyrrolo[3,2-b]pyrrol-1(2H)-yl)sulfonyl)-4-methylisoquinoline]",IC50,100 to 1000 nM
"Cc1cnc(O)c2cccc(S(=O)(=O)N3C[C@@H]4CCN[C@@H]4C3)c12 (stereo in doubt) [Example 39, 5-((hexahydropyrrolo[3,4-b]pyrrol-5(1H)-yl)sulfonyl)-4-methylisoquinolin-1-ol]",IC50,100 to 1000 nM
"Cc1cncc2cccc(S(=O)(=O)N3C[C@H]4CCCN[C@H]4C3)c12 (stereo in doubt) [Example 40, 5-((hexahydro-1H-pyrrolo[3,4-b]pyridin-6(2H)-yl)sulfonyl)-4-methylisoquinoline]",IC50,< 100 nM
"Cc1cncc2cccc(S(=O)(=O)N3C[C@H]4CN[C@H]4C3)c12 (stereo in doubt) [Example 41, 5-(3,6-diazabicyclo[3.2.0]heptan-3-ylsulfonyl)-4-methylisoquinoline]",IC50,< 100 nM
"O=S(=O)(c1cccc2cncc(C(F)(F)F)c12)N1C[C@@H]2CCN[C@@H]2C1 (stereo in doubt) [Example 46, 5-((hexahydropyrrolo[3,4-b]pyrrol-5 (1H)-yl)sulfonyl)-4-(trifluoromethyl)isoquinoline]",ROCK inhibition activity,−−
"COc1cncc2cccc(S(=O)(=O)N3CC[C@@H]4NCC[C@@H]43)c12 (stereo in doubt) [Example 47, 5-((hexahydropyrrolo[3,2-b]pyrrol-1(2H)-yl)sulfonyl)-4-methoxyisoquinoline]",IC50,1000 to 5000 nM
"COc1cncc2cccc(S(=O)(=O)N3C[C@@H]4CCN[C@@H]4C3)c12 (stereo in doubt) [Example 48, 5-((hexahydropyrrolo[3,4-b]pyrrol-5 (1H)-yl)sulfonyl)-4-methoxyisoquinoline]",IC50,1000 to 5000 nM
"COc1cncc2cccc(S(=O)(=O)N3C[C@H]4CCCN[C@H]4C3)c12 (stereo in doubt) [Example 49, 5-((hexahydro-1H-pyrrolo[3,4-b]pyridin-6(2H)-yl)sulfonyl)-4-methoxyisoquinoline]",IC50,1000 to 5000 nM
"COc1cncc2cccc(S(=O)(=O)N3C[C@H]4CN[C@H]4C3)c12 (stereo in doubt) [Example 50, 5-(3,6-diazabicyclo[3.2.0]heptan-3-ylsulfonyl)-4-methoxyisoquinoline]",IC50,1000 to 5000 nM
"O=S(=O)(c1cccc2cnccc12)N1CCC2NCCCC2C1 (stereo not drawn) [Example 5, 6-(isoquinolin-5-ylsulfonyl)decahydro-1,6-naphthyridine]",IC50,100 to 1000 nM
"O=S(=O)(c1cccc2cnccc12)N1CCC2NCCCC21 (stereo not drawn) [Example 6, 5-((octahydro-1H-pyrrolo[3,2-b]pyridin-1-yl)sulfonyl)isoquinoline]",IC50,100 to 1000 nM
"O=S(=O)(c1cccc2cnccc12)N1C[C@H]2CNC[C@H]2C1 [Example 7, 5-((hexahydropyrrolo[3,4-c]pyrrol-2(1H)-yl)sulfonyl)isoquinoline]",IC50,100 to 1000 nM
"O=S(=O)(c1cccc2cnccc12)N1CC2CCNCC2C1 (stereo not drawn) [Example 8, 5-((hexahydro-1H-pyrrolo[3,4-c]pyridin-2(3H)-yl)sulfonyl)isoquinoline]",IC50,100 to 1000 nM
"O=S(=O)(c1cccc2cnccc12)N1CCC2CCNC2C1 (stereo not drawn) [Example 9, 5-((hexahydro-1H-pyrrolo[2,3-c]pyridin-6(2H)-yl)sulfonyl) isoquinoline]",IC50,1000 to 5000 nM
"NC1CN(S(=O)(=O)c2cccc3cnccc23)CC12CC2 (stereo not drawn) [Example 10, 5-(isoquinolin-5-ylsulfonyl)-5-azaspiro[2.4]heptan-7-amine]",ROCK inhibition activity,−−
"CCNC1CN(S(=O)(=O)c2cccc3cnccc23)CC12CC2 (stereo not drawn) [Example 11, N-ethyl-5-(isoquinolin-5-ylsulfonyl)-5-azaspiro[2.4]heptan-7-amine]",ROCK inhibition activity,−−
"NC1CCN(S(=O)(=O)c2cccc3cnccc23)C12CC2 (stereo not drawn) [Example 13, 4-(isoquinolin-5-ylsulfonyl)-4-azaspiro[2.4]heptan-7-amine]",IC50,< 100 nM
"O=S(=O)(c1cccc2cnccc12)N1CCC2NCCCCC21 (stereo not drawn) [Example 14, 1-(isoquinolin-5-ylsulfonyl)decahydropyrrolo[3,2-b]azepine]",IC50,100 to 1000 nM
"O=S(=O)(c1cccc2cnccc12)N1CCC2CNCC2C1 (stereo not drawn) [Example 15, 5-((hexahydro-1H-pyrrolo[3,4-c]pyridin-5(6H)-yl)sulfonyl)isoquinoline]",IC50,100 to 1000 nM
"O=S(=O)(c1cccc2cncc(Cl)c12)N1CCC2NCCCC2C1 (stereo not drawn) [Example 20, 6-((4-chloroisoquinolin-5-yl)sulfonyl)decahydro-1,6-naphthyridine]",IC50,100 to 1000 nM
"O=S(=O)(c1cccc2cncc(Cl)c12)N1CCC2NCCCC21 (stereo not drawn) [Example 21, 4-chloro-5-((octahydro-1H-pyrrolo[3,2-b]pyridin-1-yl)sulfonyl)isoquinoline]",IC50,100 to 1000 nM
"O=S(=O)(c1cccc2cncc(Cl)c12)N1C[C@H]2CNC[C@H]2C1 [Example 22, 4-chloro-5-((hexahydropyrrolo[3,4-c]pyrrol-2(1H)-yl)sulfonyl)isoquinoline]",IC50,100 to 1000 nM
"O=S(=O)(c1cccc2cncc(Cl)c12)N1CC2CCNCC2C1 (stereo not drawn) [Example 23, 4-chloro-5-((hexahydro-1H-pyrrolo[3,4-c]pyridin-2(3H)-yl)sulfonyl)isoquinoline]",IC50,100 to 1000 nM
"O=S(=O)(c1cccc2cncc(F)c12)N1C[C@@H]2CCN[C@@H]2C1 [Example 25, 4-fluoro-5-((hexahydropyrrolo[3,4-b]pyrrol-5(1H)-yl)sulfonyl)isoquinoline]",IC50,100 to 1000 nM
"O=S(=O)(c1cccc2cncc(F)c12)N1CCC2NCCCC21 (stereo not drawn) [Example 28, 4-fluoro-5-((octahydro-1H-pyrrolo[3,2-b]pyridin-1-yl)sulfonyl)isoquinoline]",IC50,100 to 1000 nM
